Laboratory results published in PubChem BioAssay (NCI).
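96-well plates; 48 h exposure; 5 concentrations. Endpoints by linear interpolation between flanking doses. Not reached: highest tested concentration assigned. At the GI50, growth is halved. TGI: concentration producing complete growth inhibition.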

Assays:
Test in all cases: growth of human tumour cells (NCI), 48 h
A498 renal = tested on: A498 renal
A549 NSCLC = tested on: A549 NSCLC
ACHN renal = tested on: ACHN renal
CAKI-1 renal = tested on: CAKI-1 renal
CCRF-CEM leukemia = tested on: CCRF-CEM leukemia
COLO 205 colon = tested on: COLO 205 colon
DU-145 prostate = tested on: DU-145 prostate
EKVX NSCLC = tested on: EKVX NSCLC
HCC-2998 colon = tested on: HCC-2998 colon
HCT-116 colon = tested on: HCT-116 colon
HCT-15 colon = tested on: HCT-15 colon
HL-60(TB) leukemia = tested on: HL-60(TB) leukemia
HOP-62 NSCLC = tested on: HOP-62 NSCLC
HOP-92 NSCLC = tested on: HOP-92 NSCLC
HS 578T breast = tested on: HS 578T breast
HT29 colon = tested on: HT29 colon
IGROV1 ovarian = tested on: IGROV1 ovarian
K-562 leukemia = tested on: K-562 leukemia
KM12 colon = tested on: KM12 colon
LOX IMVI melanoma = tested on: LOX IMVI melanoma
M14 melanoma = tested on: M14 melanoma
MALME-3M melanoma = tested on: MALME-3M melanoma
MCF7 breast = tested on: MCF7 breast
MDA-MB-231 breast = tested on: MDA-MB-231 breast
MDA-MB-435 = tested on: MDA-MB-435
MOLT-4 leukemia = tested on: MOLT-4 leukemia
NCI-H226 lung = tested on: NCI-H226 lung
NCI-H23 lung = tested on: NCI-H23 lung
NCI-H460 lung = tested on: NCI-H460 lung
NCI-H522 lung = tested on: NCI-H522 lung
NCI/ADR-RES ovarian = tested on: NCI/ADR-RES ovarian
OVCAR-3 ovarian = tested on: OVCAR-3 ovarian
OVCAR-4 ovarian = tested on: OVCAR-4 ovarian
OVCAR-5 ovarian = tested on: OVCAR-5 ovarian
OVCAR-8 ovarian = tested on: OVCAR-8 ovarian
PC-3 prostate = tested on: PC-3 prostate
RPMI-8226 leukemia = tested on: RPMI-8226 leukemia
RXF 393 renal = tested on: RXF 393 renal
SF-268 CNS = tested on: SF-268 CNS
SF-295 CNS = tested on: SF-295 CNS
SF-539 CNS = tested on: SF-539 CNS
SK-MEL-2 melanoma = tested on: SK-MEL-2 melanoma
SK-MEL-28 melanoma = tested on: SK-MEL-28 melanoma
SK-MEL-5 melanoma = tested on: SK-MEL-5 melanoma
SN12C renal = tested on: SN12C renal
SNB-19 CNS = tested on: SNB-19 CNS
SNB-75 CNS = tested on: SNB-75 CNS
SR leukemia = tested on: SR leukemia
SW-620 colon = tested on: SW-620 colon
T-47D breast = tested on: T-47D breast
TK-10 renal = tested on: TK-10 renal
U251 CNS = tested on: U251 CNS
UACC-257 melanoma = tested on: UACC-257 melanoma
UACC-62 melanoma = tested on: UACC-62 melanoma
UO-31 renal = tested on: UO-31 renal

`O=C(C[Si](CC(=O)c1cccc(C(F)(F)F)c1)CC(=O)c1cccc(C(F)(F)F)c1)c1cccc(C(F)(F)F)c1` gave a GI50 (A498 renal) of 2.34 µM, a TGI (A498 renal) of 9.62 µM and a GI50 (A549 NSCLC) of 3.39 µM. For the same compound, the TGI (A549 NSCLC) was 11.3 µM, the GI50 (ACHN renal) was 2 µM and the TGI (ACHN renal) was 4.94 µM. It also gave a GI50 (CAKI-1 renal) of 3.39 µM, a TGI (CAKI-1 renal) of 12.9 µM and a GI50 (CCRF-CEM leukemia) of 3.1 µM. For the same compound, the TGI (CCRF-CEM leukemia) was 10.6 µM, the GI50 (COLO 205 colon) was 1.67 µM and the TGI (COLO 205 colon) was 3.07 µM. The GI50 (DU-145 prostate) was 4.43 µM, the TGI (DU-145 prostate) was 14.8 µM and the GI50 (EKVX NSCLC) was 3.1 µM. The TGI (EKVX NSCLC) was 11.5 µM, the GI50 (HCC-2998 colon) was 3.46 µM and the TGI (HCC-2998 colon) was 15 µM. It also gave a GI50 (HCT-116 colon) of 2.41 µM, a TGI (HCT-116 colon) of 8.87 µM and a GI50 (HCT-15 colon) of 2.06 µM. It also gave a TGI (HCT-15 colon) of 6.25 µM, a GI50 (HL-60(TB) leukemia) of 2.52 µM and a TGI (HL-60(TB) leukemia) of 5.99 µM. The GI50 (HOP-62 NSCLC) was 3.44 µM, the TGI (HOP-62 NSCLC) was 12 µM and the GI50 (HOP-92 NSCLC) was 2.15 µM. The TGI (HOP-92 NSCLC) was 6.43 µM, the GI50 (HS 578T breast) was 4.51 µM and the TGI (HS 578T breast) was 25.9 µM. The GI50 (HT29 colon) was 2.55 µM, the TGI (HT29 colon) was 12 µM and the GI50 (IGROV1 ovarian) was 6.24 µM. It also gave a TGI (IGROV1 ovarian) of 27.8 µM, a GI50 (K-562 leukemia) of 3.57 µM and a TGI (K-562 leukemia) of 13.4 µM. It also gave a GI50 (KM12 colon) of 3.25 µM, a TGI (KM12 colon) of 10.1 µM and a GI50 (LOX IMVI melanoma) of 2.94 µM. For the same compound, the TGI (LOX IMVI melanoma) was 11.4 µM, the GI50 (M14 melanoma) was 3.16 µM and the TGI (M14 melanoma) was 10.1 µM. For the same compound, the GI50 (MALME-3M melanoma) was 4.03 µM, the TGI (MALME-3M melanoma) was 17.4 µM and the GI50 (MCF7 breast) was 3.05 µM. The TGI (MCF7 breast) was 11.5 µM, the GI50 (MDA-MB-231 breast) was 2.3 µM and the TGI (MDA-MB-231 breast) was 4.73 µM. For the same compound, the GI50 (MDA-MB-435) was 3.27 µM, the TGI (MDA-MB-435) was 10.4 µM and the GI50 (MOLT-4 leukemia) was 2.81 µM. For the same compound, the TGI (MOLT-4 leukemia) was 8.24 µM, the GI50 (NCI-H226 lung) was 2.11 µM and the TGI (NCI-H226 lung) was 5.3 µM. It also gave a GI50 (NCI-H23 lung) of 3.27 µM, a TGI (NCI-H23 lung) of 15.6 µM and a GI50 (NCI-H460 lung) of 3.18 µM. It also gave a TGI (NCI-H460 lung) of 10.4 µM, a GI50 (NCI-H522 lung) of 2.6 µM and a TGI (NCI-H522 lung) of 9.01 µM. For the same compound, the GI50 (NCI/ADR-RES ovarian) was 3.75 µM, the TGI (NCI/ADR-RES ovarian) was 15.4 µM and the GI50 (OVCAR-3 ovarian) was 3.32 µM. For the same compound, the TGI (OVCAR-3 ovarian) was 10.5 µM, the GI50 (OVCAR-4 ovarian) was 3.12 µM and the TGI (OVCAR-4 ovarian) was 12.1 µM. It also gave a GI50 (OVCAR-5 ovarian) of 2.19 µM, a TGI (OVCAR-5 ovarian) of 6.51 µM and a GI50 (OVCAR-8 ovarian) of 3.48 µM. It also gave a TGI (OVCAR-8 ovarian) of 10.9 µM, a GI50 (PC-3 prostate) of 3.11 µM and a TGI (PC-3 prostate) of 11 µM. It also gave a GI50 (RPMI-8226 leukemia) of 2.12 µM, a TGI (RPMI-8226 leukemia) of 5.71 µM and a GI50 (RXF 393 renal) of 2.07 µM. The TGI (RXF 393 renal) was 4.3 µM, the GI50 (SF-268 CNS) was 3.8 µM and the TGI (SF-268 CNS) was 13.9 µM. For the same compound, the GI50 (SF-295 CNS) was 2.88 µM, the TGI (SF-295 CNS) was 11.2 µM and the GI50 (SF-539 CNS) was 1.85 µM. For the same compound, the TGI (SF-539 CNS) was 3.85 µM, the GI50 (SK-MEL-2 melanoma) was 2.28 µM and the TGI (SK-MEL-2 melanoma) was 5.29 µM. The GI50 (SK-MEL-28 melanoma) was 3.51 µM, the TGI (SK-MEL-28 melanoma) was 13.6 µM and the GI50 (SK-MEL-5 melanoma) was 1.63 µM. It also gave a TGI (SK-MEL-5 melanoma) of 3.03 µM, a GI50 (SN12C renal) of 3.03 µM and a TGI (SN12C renal) of 10.1 µM. For the same compound, the GI50 (SNB-19 CNS) was 3.88 µM, the TGI (SNB-19 CNS) was 13.4 µM and the GI50 (SNB-75 CNS) was 2.42 µM. The TGI (SNB-75 CNS) was 8.81 µM, the GI50 (SR leukemia) was 2.72 µM and the TGI (SR leukemia) was 7.19 µM. The GI50 (SW-620 colon) was 3.23 µM, the TGI (SW-620 colon) was 13.3 µM and the GI50 (T-47D breast) was 4.48 µM. It also gave a TGI (T-47D breast) of 13.9 µM, a GI50 (TK-10 renal) of 3.52 µM and a TGI (TK-10 renal) of 14.1 µM. For the same compound, the GI50 (U251 CNS) was 3.27 µM, the TGI (U251 CNS) was 10.4 µM and the GI50 (UACC-257 melanoma) was 2.65 µM. For the same compound, the TGI (UACC-257 melanoma) was 6.38 µM, the GI50 (UACC-62 melanoma) was 2.23 µM and the TGI (UACC-62 melanoma) was 6.28 µM. It also gave a GI50 (UO-31 renal) of 3.2 µM and a TGI (UO-31 renal) of 14.2 µM.
